# Where two headings read alike, the source gives them in different places.
# What was measured:
# [1] = aqueous kinetic solubility
# recombinant mouse GALK1 = recombinant mouse GALK1 (Mus musculus, UniProt Q9R0N0); assay: mGALK1 biochemical activity assay (Kinase-Glo Plus, ATP depletion)
# Summary of the method: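 Recombinant GALK1 (5 nM) with 100 μM galactose; GALK1 turnover read as ATP depletion by Kinase-Glo Plus luminescence. Reaction ran 1 h at room temperature before detection reagent was added.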
# [2] = rat microsomal stability (RLM)
# recombinant human GALK1 = recombinant human GALK1 (Homo sapiens, UniProt P51570); assay: hGALK1 biochemical activity assay (Kinase-Glo Plus, ATP depletion)
# Sequence of recombinant human GALK1 (P51570 whole entry): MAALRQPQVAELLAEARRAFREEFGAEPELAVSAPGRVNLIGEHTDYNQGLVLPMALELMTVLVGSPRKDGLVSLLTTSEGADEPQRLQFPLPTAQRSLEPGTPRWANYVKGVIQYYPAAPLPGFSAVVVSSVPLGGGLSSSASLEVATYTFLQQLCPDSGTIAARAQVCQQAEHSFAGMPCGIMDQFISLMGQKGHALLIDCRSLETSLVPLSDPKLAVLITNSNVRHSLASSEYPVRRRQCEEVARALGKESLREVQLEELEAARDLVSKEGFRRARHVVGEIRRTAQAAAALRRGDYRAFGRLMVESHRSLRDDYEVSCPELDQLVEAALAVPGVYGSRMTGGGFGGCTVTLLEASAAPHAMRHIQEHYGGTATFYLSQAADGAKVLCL
# Summary of the method: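 Recombinant human or mouse GALK1 (5 nM, with 100 μM galactose, in the added enzyme solution) was run with ATP (35 μM in the substrate solution) in HEPES pH 8.0 buffer. Compounds were tested at 11 1/3-step concentrations from 57.4 μM to 0.97 nM. After 1 h at room temperature, remaining ATP was read by Kinase-Glo Plus luminescence.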
# [3] = recombinant mouse GALK1, Kinase-Glo Plus ATP depletion, read-out: mGALK
# [4] = recombinant human GALK1, Kinase-Glo Plus ATP depletion, read-out: hGALK
# [5] = Tables 2-15, 35 μM ATP, 100 μM galactose, 1 h, bracketed figure after some values is undefined and not reported, read-out: mGALK IC50
# [6] = Tables 2-15, 35 μM ATP, 100 μM galactose, 1 h, bracketed figure after some values (e.g. −1.2) is undefined and not reported, read-out: hGALK IC50
# Sequence of recombinant mouse GALK1 (Q9R0N0 whole entry): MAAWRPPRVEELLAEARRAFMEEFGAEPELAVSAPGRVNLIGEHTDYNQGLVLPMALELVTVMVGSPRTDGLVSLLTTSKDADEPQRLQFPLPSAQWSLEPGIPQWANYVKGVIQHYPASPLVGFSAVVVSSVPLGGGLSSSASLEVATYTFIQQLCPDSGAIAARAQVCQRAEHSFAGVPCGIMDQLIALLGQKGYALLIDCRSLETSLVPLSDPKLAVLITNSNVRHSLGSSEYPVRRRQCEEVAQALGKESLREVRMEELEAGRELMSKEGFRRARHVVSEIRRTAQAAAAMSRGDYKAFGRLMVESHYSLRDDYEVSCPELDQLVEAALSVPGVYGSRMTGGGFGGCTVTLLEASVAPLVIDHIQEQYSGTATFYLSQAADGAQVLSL
SMILES,Sol. [1],IC50 (recombinant mouse GALK1; [3]),Perm. (1 × 10^−6 cm/sec) (PAMPA permeability),Metab. Stabil. (m) ([2]; microsomal half-life),IC50 (recombinant human GALK1; [4]),IC50 (recombinant mouse GALK1; [5]),Sol. ([1]; aqueous kinetic solubility),Perm. (1 × 10^−6 cm/sec) (PAMPA permeability; PAMPA),Metab. Stabil. (m) ([2]; microsomal stability half-life),IC50 (recombinant human GALK1; [6]),"mGALK IC50 (recombinant mouse GALK1; Tables 2-15, 35 μM ATP, 100 μM galactose, 1 h, bracketed figure after some values is undefined and not reported)","mGALK (μM) (recombinant mouse GALK1; recombinant mouse GALK1, Kinase-Glo Plus ATP depletion)","hGALK IC50 (recombinant human GALK1; Tables 2-15, 35 μM ATP, 100 μM galactose, 1 h, bracketed figure after some values (e.g. −1.2) is undefined and not reported)","hGALK (μM) (recombinant human GALK1; recombinant human GALK1, Kinase-Glo Plus ATP depletion)"
"CC1=C(C(=O)NCc2cnn(C)c2)[C@@H](c2ccc(C)cc2Cl)N=C(Nc2nc3cccc(N)c3o2)N1 [Compound 116, (S)-2-((7-aminobenzo[d]oxazol-2-yl)amino)-4-(2-chloro-4-methylphenyl)-6-methyl-N-((1-methyl-1H-pyrazol-4-yl)methyl)-1,4-dihydropyrimidine-5-carboxamide]",21.9 µg/mL,30.6 µM,326.9 1 × 10^−6 cm/sec,7.868 m,12.2 µM,,,,,,,,,
"CCn1cc(CNC(=O)C2=C(C)NC(Nc3nc4cccc(N)c4o3)=NC2c2ccc(C)cc2Cl)cn1 (centres unmarked) [Compound 117, 2-((7-aminobenzo[d]oxazol-2-yl)amino)-4-(2-chloro-4-methylphenyl)-6-methyl-N-((1-ethyl-1H-pyrazol-4-yl)methyl)-1,4-dihydropyrimidine-5-carboxamide]",2.43 µg/mL,,360.4 1 × 10^−6 cm/sec,11.3 m,0.17 µM,3.06 µM,,,,,,,,
"CC1=C(C(=O)NCc2cnn(C)c2)C(c2ccc(F)cc2Cl)N=C(Nc2nc3cccc(N)c3o2)N1 (centres unmarked) [Compound 119, 2-((7-aminobenzo[d]oxazol-2-yl)amino)-4-(2-chloro-4-fluorophenyl)-N-((1-methyl-1H-pyrazol-4-yl)methyl)-6-methyl-1,4-dihydropyrimidine-5-carboxamide]",,6.85 µM,,,0.68 µM,,49.6 µg/mL,17.14 1 × 10^−6 cm/sec,29.59 m,,,,,
"CCn1cc(CNC(=O)C2=C(C)NC(Nc3nc4cccc(N)c4o3)=NC2c2ccc(Cl)cc2Cl)cn1 (centres unmarked) [Compound 120, 2-((7-aminobenzo[d]oxazol-2-yl)amino)-4-(2,4-dichlorophenyl)-N-((1-ethyl-1H-pyrazol-4-yl)methyl)-6-methyl-1,4-dihydropyrimidine-5-carboxamide]",,8.63 µM,,,0.48 µM,,4.6 µg/mL,289.5 1 × 10^−6 cm/sec,14.14 m,,,,,
"CC1=C(C(=O)NCc2cnn(C)c2)C(c2ccc(Cl)cc2Cl)N=C(Nc2nc3cccc(N)c3o2)N1 (centres unmarked) [Compound 123, 2-((7-aminobenzo[d]oxazol-2-yl)amino)-4-(2,4-dichlorophenyl)-N-((1-methyl-1H-pyrazol-4-yl)methyl)-6-methyl-1,4-dihydropyrimidine-5-carboxamide]",,6.85 µM,,,1.09 µM,,15.63 µg/mL,142.4 1 × 10^−6 cm/sec,17.76 m,,,,,
"CC1=C(C(=O)NCc2cnn(C)c2)C(c2ccc(C)cc2Cl)N=C(Nc2nc3ccc(F)c(C(=O)O)c3o2)N1 (centres unmarked) [Compound 128, 2-((4-(2-chloro-4-methylphenyl)-6-methyl-5-(((1-methyl-1H-pyrazol-4-yl)methyl)carbamoyl)-1,4-dihydropyrimidin-2-yl)amino)-6-fluorobenzo[d]oxazole-7-carboxylic acid]",,21.7 µM,,,17.2 µM,,26.3 µg/mL,<1 1 × 10^−6 cm/sec,>30 m,,,,,
"CC1=C(C(=O)NCc2cnn(C(C)(C)C)c2)C(c2ccc(C)cc2Cl)N=C(Nc2nc3ccc(F)c(N)c3o2)N1 (centres unmarked) [Compound 132, 2-((7-amino-6-fluorobenzo[d]oxazol-2-yl)amino)-N-((1-(tert-butyl)-1H-pyrazol-4-yl)methyl)-4-(2-chloro-4-methylphenyl)-6-methyl-1,4-dihydropyrimidine-5-carboxamide]",,4.32 µM,,,0.77 µM,4.32 µM,<1 µg/mL,553.2 1 × 10^−6 cm/sec,14.41 m,0.77 µM,,,,
"CCn1cc(CNC(=O)C2=C(C)NC(Nc3nc4ccc(F)c(N)c4o3)=N[C@@H]2c2ccc(C)cc2Cl)cn1 [Compound 134, (S)-2-((7-amino-6-fluorobenzo[d]oxazol-2-yl)amino)-4-(2-chloro-4-methylphenyl)-N-((1-ethyl-1H-pyrazol-4-yl)methyl)-6-methyl-1,4-dihydropyrimidine-5-carboxamide]",,10.9 µM,,,1.53 µM,,<1 µg/mL,772.8 1 × 10^−6 cm/sec,8.619 m,,,,,
"CC1=C(C(=O)Nc2ccccc2Cl)C(c2ccccc2Cl)N=C(Nc2nc3ccccc3o2)N1 (centres unmarked) [Compound 140, 2-(benzo[d]oxazol-2-ylamino)-N,4-bis(2-chlorophenyl)-6-methyl-1,4-dihydropyrimidine-5-carboxamide]",,,,,,,<1 µg/mL,56.0 1 × 10^−6 cm/sec,28.74 m,4.32 µM,inactive,in- active,,
"CC1=C(C(=O)Nc2ccc(Cl)cc2)C(c2ccccc2Cl)N=C(Nc2nc3ccccc3o2)N1 (centres unmarked) [Compound 141, 2-(benzo[d]oxazol-2-ylamino)-4-(2-chlorophenyl)-N-(4-chlorophenyl)-6-methyl-1,4-dihydropyrimidine-5-carboxamide]",,7.69 µM,,,,7.69 µM,<1 µg/mL,2.0 1 × 10^−6 cm/sec,>30 m,,,,inactive,in- active

# Continued by falling IC50 (recombinant mouse GALK1; [3]), values first:
Sol. [1],IC50 (recombinant mouse GALK1; [3]),Perm. (1 × 10^−6 cm/sec) (PAMPA permeability),Metab. Stabil. (m) ([2]; microsomal half-life),IC50 (recombinant human GALK1; [4]),IC50 (recombinant mouse GALK1; [5]),Sol. ([1]; aqueous kinetic solubility),Perm. (1 × 10^−6 cm/sec) (PAMPA permeability; PAMPA),Metab. Stabil. (m) ([2]; microsomal stability half-life),IC50 (recombinant human GALK1; [6]),"mGALK IC50 (recombinant mouse GALK1; Tables 2-15, 35 μM ATP, 100 μM galactose, 1 h, bracketed figure after some values is undefined and not reported)","mGALK (μM) (recombinant mouse GALK1; recombinant mouse GALK1, Kinase-Glo Plus ATP depletion)","hGALK IC50 (recombinant human GALK1; Tables 2-15, 35 μM ATP, 100 μM galactose, 1 h, bracketed figure after some values (e.g. −1.2) is undefined and not reported)","hGALK (μM) (recombinant human GALK1; recombinant human GALK1, Kinase-Glo Plus ATP depletion)",SMILES
,3.43 µM,,,0.49 µM,3.43 µM,<1 µg/mL,460.2 1 × 10^−6 cm/sec,2.993 m,0.49 µM,,,,,CC1=C(C(=O)NCc2cnn(C)c2C)C(c2ccc(C)cc2Cl)N=C(Nc2nc3ccc(F)cc3o2)N1 (centres unmarked) [Compound 124]
,3.06 µM,,,0.19 µM,3.06 µM,1.56 µg/mL,193.1 1 × 10^−6 cm/sec,18.69 m,0.19 µM,,,,,"CC1=C(C(=O)NCc2cnn(CC(F)(F)F)c2)C(c2ccc(C)cc2Cl)N=C(Nc2nc3ccc(F)c(N)c3o2)N1 (centres unmarked) [Compound 131, 2-((7-amino-6-fluorobenzo[d]oxazol-2-yl)amino)-4-(2-chloro-4-methylphenyl)-6-methyl-N-((1-(2,2,2-trifluoroethyl)-1H-pyrazol-4-yl)methyl)-1,4-dihydropyrimidine-5-carboxamide]"
,2.17 µM,,,0.43 µM,2.17 µM,1.53 µg/mL,187.9 1 × 10^−6 cm/sec,3.55 m,0.43 µM,,,,,"CCn1nc(C)c(CNC(=O)C2=C(C)NC(Nc3nc4ccc(F)c(N)c4o3)=NC2c2ccc(C)cc2Cl)c1F (centres unmarked) [Compound 129, 2-((7-amino-6-fluorobenzo[d]oxazol-2-yl)amino)-4-(2-chloro-4-methylphenyl)-N-((1-ethyl-5-fluoro-3-methyl-1H-pyrazol-4-yl)methyl)-6-methyl-1,4-dihydropyrimidine-5-carboxamide]"
,2.17 µM,,,0.19 µM,,23.87 µg/mL,133.5 1 × 10^−6 cm/sec,17.72 m,,,,,,"CCn1cc(CNC(=O)C2=C(C)NC(Nc3nc4ccc(F)c(N)c4o3)=NC2c2ccccc2Cl)cn1 (centres unmarked) [Compound 136, 2-((7-amino-6-fluorobenzo[d]oxazol-2-yl)amino)-4-(2-chlorophenyl)-N-((1-ethyl-1H-pyrazol-4-yl)methyl)-6-methyl-1,4-dihydropyrimidine-5-carboxamide]"
,1.93 µM,,,0.22 µM,,5.9 µg/mL,166.7 1 × 10^−6 cm/sec,>30 m,,,,,,"CC1=C(C(=O)NCc2cnn(C)c2)C(c2ccc(Cl)cc2Cl)N=C(Nc2nc3ccc(F)c(N)c3o2)N1 (centres unmarked) [Compound 127, 2-((7-amino-6-fluorobenzo[d]oxazol-2-yl)amino)-4-(2,4-dichlorophenyl)-6-methyl-N-((1-methyl-1H-pyrazol-4-yl)methyl)-1,4-dihydropyrimidine-5-carboxamide]"
,1.93 µM,,,0.27 µM,,<1 µg/mL,380.3 1 × 10^−6 cm/sec,6.787 m,,,,,,"CCn1cc(CNC(=O)C2=C(C)NC(Nc3nc4ccc(F)c(N)c4o3)=NC2c2ccc(Cl)cc2Cl)cn1 (centres unmarked) [Compound 130, 2-((7-amino-6-fluorobenzo[d]oxazol-2-yl)amino)-4-(2,4-dichlorophenyl)-N-((1-ethyl-1H-pyrazol-4-yl)methyl)-6-methyl-1,4-dihydropyrimidine-5-carboxamide]"
,1.09 µM,,,0.11 µM,1.09 µM,<1 µg/mL,427.4 1 × 10^−6 cm/sec,7.036 m,0.11 µM,,,,,"CCn1ncc(CNC(=O)C2=C(C)NC(Nc3nc4ccc(F)c(N)c4o3)=NC2c2ccc(C)cc2Cl)c1F (centres unmarked) [Compound 133, 2-((7-amino-6-fluorobenzo[d]oxazol-2-yl)amino)-4-(2-chloro-4-methylphenyl)-N-((1-ethyl-5-fluoro-1H-pyrazol-4-yl)methyl)-6-methyl-1,4-dihydropyrimidine-5-carboxamide]"
